The values below come from patent publication US10696693B2, “Fused imidazole derivatives as TGF-beta inhibitors” (Rigel Pharmaceuticals, Inc., priority 2014, dated 2020).

Where two headings read alike, the source gives them in different places.

The test system of test [1] is GDF8. The test can be described thus: AlphaScreen SureFire p-SMAD3 (Ser423/425) assay, GDF8-stimulated cells. It is filed as cell-based. Particulars: Mus musculus. The procedure, abridged:
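A SureFire AlphaScreen assay measured phosphorylation of endogenous SMAD-3 at Ser423/425 in cell lysates. Cells were treated with three-fold serially diluted compounds in DMSO for about 10 minutes, then stimulated with GDF8. After medium removal, cells were lysed in 1× Lysis Buffer (about 25 μL) with gentle shaking for 5-10 minutes.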
(Bead proximity is the source of the signal in Alpha formats.)

The subject of test [2] is TGF-β. Put plainly: AlphaScreen SureFire p-SMAD3 (Ser423/425) assay, TGF-β-stimulated cells. In kind it is cell-based. Particulars: Mus musculus. The procedure, abridged:
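The p-SMAD-3 (Ser423/425) SureFire assay measured phosphorylation of endogenous SMAD-3 in cell lysates. Cells were plated overnight in collagen-coated plates, exposed to three-fold serially diluted compounds for about 10 minutes, then stimulated with TGFβ. Lysates (5 μL) received acceptor bead mix for 2 hours, then donor beads for 1½ hours before AlphaScreen reading.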

The mark [3] stands for this setting: MPC-11, p-SMAD3 (Ser423/425) AlphaScreen in cell lysate, MPC11, GDF8 stimulation, read-out: GDF8: inhibition of GDF8 signaling, GDF pSMAD (MPC11).
Setting [4] is: p-SMAD3 (Ser423/425) AlphaScreen in cell lysate, MPC-11, TGF-β stimulation, read-out: TGF-β: inhibition of TGF-β signaling, TGF-β pSMAD (MPC-11).
The mark [5] stands for this setting: MPC-11, read-out: GDF8: inhibition of GDF8 signaling, GDF pSMAD (MPC11), p-SMAD3 (Ser423/425) AlphaScreen in cell lysate, GDF8 stimulation.
The mark [6] stands for this setting: MPC-11, read-out: TGF-β: inhibition of TGF-β signaling, TGF-β pSMAD (MPC-11), p-SMAD3 (Ser423/425) AlphaScreen in cell lysate, TGF-β stimulation.

On to `Fc1ccccc1-c1nc2n(c1-c1ccc3cn[nH]c3c1)CCC2` [Compound 198, 6-(2-(2-fluorophenyl)-6,7-dihydro-5H-pyrrolo[1,2-a]imidazol-3-yl)-1H-indazole], for which the IC50 in test [1] (setting [3]) and in test [2] (setting [4]) was above 1 µM each time.
Consider `Cc1cc(-c2nc3n(c2-c2ccc4ncnn4c2)CCC3)c(F)cc1F` [Compound 38, 6-(2-(2,4-difluoro-5-methylphenyl)-6,7-dihydro-5H-pyrrolo[1,2-a]imidazol-3-yl)-[1,2,4]triazolo[1,5-a]pyridine], for which the IC50 in test [1] (setting [3]) and in test [2] (setting [4]) was below 0.05 µM throughout.
As to `Cc1c(F)ccc(-c2nc3n(c2-c2ccc4nccn4c2)CCC3)c1F` [Compound 46, 6-(2-(2,4-difluoro-3-methylphenyl)-6,7-dihydro-5H-pyrrolo[1,2-a]imidazol-3-yl)imidazo[1,2-a]pyridine], the IC50 in test [1] (setting [3]) and in test [2] (setting [4]) was 0.1 to 1 µM throughout.
Turning to `Fc1cc(F)c(-c2nc3n(c2-c2ccc4ncc(OCCN5CCOCC5)nc4c2)CCN3)cc1F` [Compound 122, 4-(2-((7-(6-(2,4,5-trifluorophenyl)-2,3-dihydro-1H-imidazo[1,2-a]imidazol-5-yl)quinoxalin-2-yl)oxy)ethyl)morpholine], the IC50 lay in the range of 0.05 to 0.1 µM in test [1] (setting [3]) and 0.1 to 1 µM in test [2] (setting [4]).
As for `Cc1c(-c2nc3n(c2-c2ccc4nccnc4c2)CCC3)ccc(F)c1F` [Compound 262, 6-(2-(3,4-difluoro-2-methylphenyl)-6,7-dihydro-5H-pyrrolo[1,2-a]imidazol-3-yl)quinoxaline], the values for the IC50 in test [1] (setting [3]) and in test [2] (setting [4]) were 0.1 to 1 µM and above 1 µM, respectively.
Consider `CN(C)C(=O)C1CCC2(CC1)Cc1nc(-c3ccc(F)cc3)c(-c3ccc4ncnn4c3)n1C2` (stereo not drawn) [Compound 79, 3′-([1,2,4]triazolo[1,5-a]pyridin-6-yl)-2′-(4-fluorophenyl)-N,N-dimethyl-5′H,7′H-spiro[cyclohexane-1,6′-pyrrolo[1,2-a]imidazole]-4-carboxamide], for which the IC50 in test [1] (setting [5]) and in test [2] (setting [6]) was above 1 µM throughout.
In the case of `Fc1ccc(-c2nc3n(c2-c2ccc4[nH]ncc4c2)CCC3)cc1F` [Compound 205, 5-(2-(3,4-difluorophenyl)-6,7-dihydro-5H-pyrrolo[1,2-a]imidazol-3-yl)-1H-indazole], the IC50 in test [1] (setting [3]) and in test [2] (setting [4]) was 0.1 to 1 µM in each case.
For the compound `Fc1ccc(-c2nc3n(c2-c2ccc4[nH]ncc4c2)CCC3)c(F)c1` [Compound 201, 5-(2-(2,4-difluorophenyl)-6,7-dihydro-5H-pyrrolo[1,2-a]imidazol-3-yl)-1H-indazole], the IC50 in test [1] (setting [3]) was below 0.05 µM; in test [2] (setting [4]), 0.1 to 1 µM.
On the same counts, the results for `Fc1cc(-c2nc3n(c2-c2ccc4nccn4c2)CCC3)cc(F)c1F` [Compound 13] are 0.1 to 1 µM and above 1 µM.
On the same counts, the results for `Fc1cc(F)c(-c2nc3n(c2-c2ccc4cn[nH]c4c2)CCC3)cc1F` [Compound 217, 6-(2-(2,4,5-trifluorophenyl)-6,7-dihydro-5H-pyrrolo[1,2-a]imidazol-3-yl)-1H-indazole] are 0.1 to 1 µM and 0.1 to 1 µM.
On the same counts, the results for `Cc1ccc(-c2nc3n(c2-c2ccc4ncsc4c2)CCC3)c(F)c1F` [Compound 249, 6-(2-(2,3-difluoro-4-methylphenyl)-6,7-dihydro-5H-pyrrolo[1,2-a]imidazol-3-yl)benzo[d]thiazole] are above 1 µM and above 1 µM.
`Cc1ccccc1-c1nc2n(c1-c1ccc3nccn3c1)CCC2` [Compound 63, 6-(2-(2-methylphenyl)-6,7-dihydro-5H-pyrrolo[1,2-a]imidazol-3-yl)imidazo[1,2-a]pyridine]: the IC50 in test [1] (setting [3]) and in test [2] (setting [4]) was above 1 µM throughout.
`Cc1cc(-c2nc3n(c2-c2ccc4ncccc4c2)CCC3)cc(C)c1Cl` [Compound 246, 6-(2-(4-chloro-3,5-dimethylphenyl)-6,7-dihydro-5H-pyrrolo[1,2-a]imidazol-3-yl)quinoline]: the IC50 in test [1] (setting [3]) and in test [2] (setting [4]) was above 1 µM each time.
For the compound `Fc1ccc(-c2nc3occn3c2-c2ccc3cn[nH]c3c2)cc1` [Compound 128, 6-(4-fluorophenyl)-5-(1H-indazol-6-yl)imidazo[1,2-b]oxaozle], the IC50 in test [1] (setting [3]) and in test [2] (setting [4]) was 0.1 to 1 µM in each case.
As to `Fc1cc(F)c(F)c(-c2nc3n(c2-c2ccc4ncccc4c2)CCC3)c1` [Compound 237, 6-(2-(2,3,5-trifluorophenyl)-6,7-dihydro-5H-pyrrolo[1,2-a]imidazol-3-yl)quinoline], the figures for the IC50 in test [1] (setting [3]) and in test [2] (setting [4]) were 0.1 to 1 µM and above 1 µM, respectively.
On the same counts, the results for `OCC1Cn2c(nc(-c3cc(F)cc(F)c3F)c2-c2ccc3nccnc3c2)N1` (stereo not drawn) [Compound 124, (5-(quinoxalin-6-yl)-6-(2,3,5-trifluorophenyl)-2,3-dihydro-1H-imidazo[1,2-a]imidazol-2-yl)methanol] are 0.1 to 1 µM and 0.1 to 1 µM.
On the same counts, the results for `Fc1ccc(Cl)cc1-c1nc2n(c1-c1ccc3ncnn3c1)CCC2` [Compound 82, 6-(2-(5-chloro-2-fluoro)-6,7-dihydro-5H-pyrrolo[1,2-a]imidazol-3-yl)-[1,2,4]triazolo[1,5-a]pyridine] are below 0.05 µM and below 0.05 µM.
Take `Clc1cccc(-c2nc3n(c2-c2ccc4nccnc4c2)CCC3)c1` [Compound 192, 6-(2-(3-chlorophenyl)-6,7-dihydro-5H-pyrrolo[1,2-a]imidazol-3-yl)quinoxaline]: the IC50 in test [1] (setting [5]) lay in the range of 0.05 to 0.1 µM; in test [2] (setting [6]) it was 0.1 to 1 µM.
With `Fc1cc(F)c(-c2nc3n(c2-c2ccc4nccnc4c2)CCN3)cc1F` [Compound 106, 6-(6-(2,4,5-trifluorophenyl)-2,3-dihydro-1H-imidazo[1,2-a]imidazol-5-yl)quinoxaline], the IC50 in test [1] (setting [3]) and in test [2] (setting [4]) was below 0.05 µM throughout.
For `Cc1cccc(-c2nc3occn3c2-c2ccc3ncccc3c2)c1` [Compound 144, 5-(quinolin-6-yl)-6-(m-tolyl)imidazo[2,1-b]oxazole], the IC50 in test [1] (setting [3]) was below 0.05 µM; in test [2] (setting [4]), 0.05 to 0.1 µM.
As for `Cc1cc(-c2nc3n(c2-c2ccc4ncnn4c2)CCC3)c(F)cc1Cl` [Compound 28, 6-(2-(4-chloro-2-fluoro-5-methylphenyl)-6,7-dihydro-5H-pyrrolo[1,2-c]imidazol-3-yl)-[1,2,4]triazolo[1,5-c]pyridine], the IC50 in test [1] (setting [3]) and in test [2] (setting [4]) was above 1 µM in each case.
Turning to `Cc1cc(F)c(-c2nc3n(c2-c2ccc4ncnn4c2)CCC3)cc1F` [Compound 47, 6-(2-(2,5-difluoro-4-methylphenyl)-6,7-dihydro-5H-pyrrolo[1,2-a]imidazol-3-yl)-[1,2,4]triazolo[1,5-a]pyridine], the IC50 in test [1] (setting [3]) and in test [2] (setting [4]) was above 1 µM in each case.
For the compound `O=C(O)C1Cn2c(nc(-c3cc(F)cc(F)c3F)c2-c2ccc3nccnc3c2)N1` (stereo not drawn) [Compound 125, 5-(quinoxalin-6-yl)-6-(2,3,5-trifluorophenyl)-2,3-dihydro-1H-imidazo[1,2-a]imidazole-2-carboxylic acid], the IC50 in test [1] (setting [3]) was 0.05 to 0.1 µM; in test [2] (setting [4]) it was below 0.05 µM.
`Fc1ccc(-c2nc3n(c2-c2ccc4ncnn4c2)CCC3)c(F)c1F` [Compound 15, 6-(2-(2,3,4-trifluorophenyl)-6,7-dihydro-5H-pyrrolo[1,2-a]imidazol-3-yl)-[1,2,4]triazolo[1,5-a]pyridine]: the IC50 in test [1] (setting [3]) is 0.1 to 1 µM; in test [2] (setting [4]) it was above 1 µM.
On the same counts, the results for `Fc1cc(-c2nc3n(c2-c2ccc4ncnn4c2)CCC3)c(F)cc1Cl` [Compound 18, 6-(2-(4-chloro-2,5-difluorophenyl)-6,7-dihydro-5H-pyrrolo[1,2-a]imidazol-3-yl)-[1,2,4]triazolo[1,5-a]pyridine] are 0.1 to 1 µM and above 1 µM.
Turning to `COc1cccc(-c2nc3n(c2-c2ccc4cn[nH]c4c2)CCC3)c1` [Compound 186, 6-(2-(3-methoxyphenyl)-6,7-dihydro-5H-pyrrolo[1,2-a]imidazol-3-yl)-1H-indazole], the IC50 in test [1] (setting [5]) was 0.05 to 0.1 µM; in test [2] (setting [6]) it was 0.1 to 1 µM.
On the same counts, the results for `Cc1c(F)ccc(-c2nc3n(c2-c2ccc4[nH]ncc4c2)CCC3)c1C` [Compound 328, 5-(2-(4-fluoro-2,3-dimethylphenyl)-6,7-dihydro-5H-pyrrolo[1,2-a]imidazol-3-yl)-1H-indazole] are 0.1 to 1 µM and above 1 µM.
In the case of `Cc1c(F)ccc(-c2nc3n(c2-c2ccc4nccnc4c2)CCC3)c1Cl` [Compound 314, 6-(2-(2-chloro-4-fluoro-3-methylphenyl)-6,7-dihydro-5H-pyrrolo[1,2-a]imidazol-3-yl)quinoxaline], the IC50 in test [1] (setting [3]) and in test [2] (setting [4]) was above 1 µM in each case.
For the compound `Fc1ccc(-c2nc3n(c2-c2ccc4nccnc4c2)CCC3)c(F)c1F` [Compound 224, 6-(2-(2,3,4-trifluorophenyl)-6,7-dihydro-5H-pyrrolo[1,2-a]imidazol-3-yl)quinoxaline], the IC50 is 0.1 to 1 µM in test [1] (setting [3]) and above 1 µM in test [2] (setting [4]).
For the compound `Cc1cc(F)ccc1-c1nc2n(c1-c1ccc3nccn3c1)CCC2` [Compound 55, 6-(2-(4-fluoro-2-methylphenyl)-6,7-dihydro-5H-pyrrolo[1,2-a]imidazol-3-yl)imidazo[1,2-a]pyridine], the IC50 is 0.1 to 1 µM in test [1] (setting [3]) and above 1 µM in test [2] (setting [4]).
